Patent US20260041707A1, “GASTROINTESTINAL PROTECTANT COMPOSITION” (BIOIBERICA, S.A.U., priority 2022, published 2026)

Assays:
[1] = tested on: human patients; details: humans; cited from earlier work
[2] = tested on: indomethacin-induced gastric irritation; experiment: Rat model of indomethacin-induced gastric irritation; type: in vivo, Sprague-Dawley rats
Method: Forty-five Sprague-Dawley rats (8-9 weeks-old, 227.6±6.30 g) were divided in three groups (P1, P2 and P3; n=9 each) to receive orally 0.5 mL/rat of the test treatments. Two control groups were studied as well. […] 15 minutes after the administration of the treatment, all animals were challenged with an oral administration of indomethacin (12.5 mg/kg) and sacrificed 4 hours later. Gastric mucosal injury was examined at a macroscopical and microscopical level. Macroscopic lesions were evaluated with Image J software. Microscopically, submucosal edema and microvascular injury were scored in H&E-stained preparations (Hematoxylin&Eosin-stained preparations). Measurements were blinded and performed by two independent observers and an inter-observer mean was calculated.

Sucrose octasulfate-aluminum complex [sucralfate]
other adverse effects (xerostomia, nausea, vomiting, headache, urticaria, rashes), incidence in patients [1]: 0-5%
microvascular injury evaluation (score, mean±SEM) ([2]; H&E-stained fundic sections, Placebo 1.53±0.077, significant vs Placebo): 0.94±0.123
histological sections of the fundic stomach (findings) ([2]; microscopic evaluation, H&E-stained fundic sections): less severe lesions
percentage of hemorrhagic area related to the total gastric area (mean±SEM) ([2]; oral 0.5 mL/rat 15 min before oral indomethacin 12.5 mg/kg, sacrificed 4 hours later, Placebo 1.37±0.260%, p<0.05 vs Placebo): 0.41±0.154%
hemorrhagic area (mean±SEM) ([2]; oral 0.5 mL/rat 15 min before oral indomethacin 12.5 mg/kg, sacrificed 4 hours later, Placebo 13.05±2.700, p<0.05 vs Placebo): 4.28±1.495 mm^2
